According to publication PMC5601071 (Frontiers in Pharmacology, 2017):
Residues, ends and D or L forms follow the SMILES beside them. *: point of attachment. 5FAM = O=C1OC2(c3ccc(O)cc3Oc3cc(O)ccc32)c2ccc(C(=O)*)cc21; Biotin = O=C1N[C@H]2[C@H](CS[C@H]2CCCCC(=O)*)N1; Dansyl = CN(C)c1cccc2c(S(=O)(=O)*)cccc12; Fmoc = O=C(OCC1c2ccccc2-c2ccccc21)*; Stearoyl = CCCCCCCCCCCCCCCCCC(=O)*; Myristoyl = CCCCCCCCCCCCCC(=O)*; For = O=C*

target: T1, TREK-1 channel (hTREK-1/HEK cells) (Homo sapiens, UniProt O95069); assay: TREK-1 current inhibition, whole-cell patch-clamp on hTREK-1/HEK cell line; format: cell-based; conditions: HEK293, peptide 100 nM; TREK-1 first activated with 10 μM arachidonic acid (AA); current density at 0 mV; hTREK-1/HEK cells; mean ± SEM, n = cells; read-out: % of TREK-1 inhibition
T1 construct: expressed in transfected cells
T1 sequence (O95069 1-426): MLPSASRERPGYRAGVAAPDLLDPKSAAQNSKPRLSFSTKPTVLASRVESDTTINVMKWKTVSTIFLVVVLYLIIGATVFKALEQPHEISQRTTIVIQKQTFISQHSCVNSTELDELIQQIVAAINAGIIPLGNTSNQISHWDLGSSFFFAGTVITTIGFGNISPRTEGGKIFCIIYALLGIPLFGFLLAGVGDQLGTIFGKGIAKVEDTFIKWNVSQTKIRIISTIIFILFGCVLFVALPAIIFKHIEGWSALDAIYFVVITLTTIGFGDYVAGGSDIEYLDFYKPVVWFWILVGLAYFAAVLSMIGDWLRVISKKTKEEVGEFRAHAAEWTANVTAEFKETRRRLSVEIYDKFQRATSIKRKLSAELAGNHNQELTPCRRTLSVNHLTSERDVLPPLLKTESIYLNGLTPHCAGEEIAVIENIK
Procedure: The human TREK-1/HEK cell line (Moha ou Maati et al., [2011]) and the native HEK293 cell line were maintained in Dulbecco's Modified Eagle's Medium (DMEM) supplemented with 10% (v/v) heat-inactivated fetal bovine serum, 1% (v/v) penicillin-streptomycin, 1% Glutamax. For the hTREK-1/HEK cells, 0.5 mg/ml G418 were added to the medium.
Cells were incubated in a humidified atmosphere containing 5% CO2. For electrophysiological measurements, cells were plated at a density of 20,000 cells per 35 mm dish.
Cells from the hTREK-1/HEK cell line were seeded at a density of 20,000 cells/35 mm dish. Electrophysiological recordings were performed 24–48 h after plating using the whole-cell configuration of patch-clamp technique. TREK-1 currents (ITREK−1) were recorded using RK400 patch-clamp amplifier (Axon Instrument, USA). They were low-pass filtered at 3 kHz and digitized at 10 kHz using a 12-bit analog-to-digital converter digidata (1322 series, Axon Instrument, USA). ITREK−1amplitudes were expressed as current densities [current amplitude (pA)/membrane capacitance (pF)]. The results were expressed as mean ± SEM (standard error of the mean).
Cells were continuously perfused using an external bath solution containing in mM: 150 NaCl, 5 KCl, 3 MgCl2, 1 CaCl2, and 10 HEPES. The bath solution was initially adjusted to pH 7.4 with NaOH. The intra-pipette solution contained in mM: 155 KCl, 3 MgCl2, 5 EGTA, and 10 HEPES adjusted to pH 7.2 with KOH. In order to measure ITREK−1, a cocktail of potassium channel blockers was added to the bath solution. This cocktail contained: 3 mM 4-AP (4-aminopyridine), 10 mM TEA (tetraethylammonium), 10 μM Glibenclamide, 100 nM Apamin, and 50 nM Charybdotoxin. Data acquisition was carried out using a computer (Dell Pentium) with pClamp software (Axon Instrument, USA). Whole-cell currents were generated by running a pulse or ramp protocol every 5 s from −100 to +60 mV with a holding potential maintained at −80 mV. To evaluate the inhibitory effect on TREK-1 channels of shortened spadin analogs compared with spadin, cells were first activated by 10 μM arachidonic acid (AA). Dose-response curves were realized to compare spadin-analog effects with spadin using Origin 8.6 (Northampton, MA, USA).
Patch-clamp recording data were analyzed using Clampfit (Molecular Devices, USA). I = f(V) curves were obtained from −100 to +60 mV ramp. Data were presented as mean ± SEM.

| SMILES | inhibition at 0.1 µM [%] |
| --- | --- |
| CC(C)C[C@H](NC(=O)CNC(=O)[C@H](Cc1c[nH]c2ccccc12)NC(=O)[C@H](CO)NC(=O)[C@@H](NC(=O)CN)C(C)C)C(=O)N[C@@H](CCCNC(=N)N)C(=O)O [PE 22-28] (H-GVSWGLR-OH) | 55.5 ± 4.55 |
| CC(C)C[C@H](NC(=O)CNC(=O)[C@H](Cc1c[nH]c2ccccc12)NC(=O)[C@H](CO)NC(=O)[C@@H](NC(=O)CNC(=O)CCCC[C@@H]1SC[C@@H]2NC(=O)N[C@@H]21)C(C)C)C(=O)N[C@@H](CCCNC(=N)N)C(=O)O [Biotinylated-PE 22-28] (Biotin-GVSWGLR-OH) | 53 ± 6.42 |
| CC(C)C[C@H](NC(=O)CNC(=O)[C@H](Cc1c[nH]c2ccccc12)NC(=O)[C@H](CO)NC(=O)[C@@H](NC(=O)[C@H](C)N)C(C)C)C(=O)N[C@@H](CCCNC(=N)N)C(=O)O [G/A-PE 22-28] (H-AVSWGLR-OH) | 50.6 ± 7.93 |
| CC[C@H](C)[C@H](NC(=O)[C@@H]1CCCN1)C(=O)NCC(=O)N[C@H](C(=O)N[C@@H](CO)C(=O)N[C@@H](Cc1c[nH]c2ccccc12)C(=O)NCC(=O)N[C@@H](CC(C)C)C(=O)N[C@@H](CCCNC(=N)N)C(=O)O)C(C)C [PI-PE 22-28] (H-PIGVSWGLR-OH) | 46.2 ± 7.57 |
| COC(=O)[C@H](CCCNC(=N)N)NC(=O)[C@H](CC(C)C)NC(=O)CNC(=O)[C@H](Cc1c[nH]c2ccccc12)NC(=O)[C@H](CO)NC(=O)[C@@H](NC(=O)CN)C(C)C [PE 22-28-O-Methyl] (H-GVSWGLR-OMe) | 43 ± 13.5 |
| CC(C)C[C@H](NC(=O)CNC(=O)[C@H](Cc1c[nH]c2ccccc12)NC(=O)[C@H](CO)NC(=O)[C@@H](NC(=O)CNC(=O)c1ccc2c(c1)C(=O)OC21c2ccc(O)cc2Oc2cc(O)ccc21)C(C)C)C(=O)N[C@@H](CCCNC(=N)N)C(=O)O [5'FAM-PE 22-28] (5FAM-GVSWGLR-OH) | 6.63 ± 7.07 |
| CC(C)C[C@H](NC(=O)CNC(=O)[C@H](Cc1c[nH]c2ccccc12)NC(=O)[C@H](CO)NC(=O)[C@@H](NC(=O)CN)C(C)C)C(=O)O [PE 22-27] (H-GVSWGL-OH) | 25.7 ± 20 |

same assay, conditions: HEK293, read-out: % of TREK-1 inhibition

| SMILES | inhibition at 0.1 µM [%] |
| --- | --- |
| CC(C)C[C@H](NC(=O)CNC(=O)[C@H](Cc1c[nH]c2ccccc12)NC(=O)[C@H](CO)NC(=O)[C@@H](NC(=O)CNC(=O)OCC1c2ccccc2-c2ccccc21)C(C)C)C(=O)N[C@@H](CCCNC(=N)N)C(=O)O [F-Moc-PE 22-28] (Fmoc-GVSWGLR-OH) | 5.83 ± 10.9 |
| CC(C)C[C@H](NC(=O)CNC(=O)[C@H](Cc1c[nH]c2ccccc12)NC(=O)[C@H](CO)NC(=O)[C@@H](NC(=O)CNS(=O)(=O)c1cccc2c(N(C)C)cccc12)C(C)C)C(=O)N[C@@H](CCCNC(=N)N)C(=O)O [DansyI-PE 22-28] (Dansyl-GVSWGLR-OH) | 48.8 ± 14.5 |
| CC(C)C[C@H](NC(=O)CNC(=O)[C@H](Cc1c[nH]c2ccccc12)NC(=O)[C@H](CO)NC(=O)[C@@H](NC(=O)CNC=O)C(C)C)C(=O)N[C@@H](CCCNC(=N)N)C(=O)O [Formyl-PE 22-28] (For-GVSWGLR-OH) | 32.5 ± 12.2 |
| CC(=O)NCC(=O)N[C@H](C(=O)N[C@@H](CO)C(=O)N[C@@H](Cc1c[nH]c2ccccc12)C(=O)NCC(=O)N[C@@H](CC(C)C)C(=O)N[C@@H](CCCNC(=N)N)C(=O)O)C(C)C [Acetyl-PE 22-28] (Ac-GVSWGLR-OH) | 20.5 ± 8.78 |
| CCCCCCCCCCCCCCCCCC(=O)NCC(=O)N[C@H](C(=O)N[C@@H](CO)C(=O)N[C@@H](Cc1c[nH]c2ccccc12)C(=O)NCC(=O)N[C@@H](CC(C)C)C(=O)N[C@@H](CCCNC(=N)N)C(=O)O)C(C)C [Stearic acid-PE 22-28] (Stearoyl-GVSWGLR-OH) | 5.41 ± 5.5 |
| CCCCCCCCCCCCCC(=O)NCC(=O)N[C@H](C(=O)N[C@@H](CO)C(=O)N[C@@H](Cc1c[nH]c2ccccc12)C(=O)NCC(=O)N[C@@H](CC(C)C)C(=O)N[C@@H](CCCNC(=N)N)C(=O)O)C(C)C [Myristoyl-PE 22-28] (Myristoyl-GVSWGLR-OH) | 18 ± 17.8 |
